Assay results as given in US20240425492A1, “POLYMORPHS AS ERBB INHIBITORS” (Black Diamond Therapeutics, Inc., priority 2021, published 2024).
≈ marks a conversion by molar mass, not a printed value. Like-named read-outs stand apart in the source and are kept apart here.

Key:
[1] = Hygroscopicity by DVS at 25° C.; type: physicochemical; conditions: for Desorp. (%) / Sorp. (%): DVS 25° C.
Method: Dynamic Vapor Sorption (DVS): DVS analysis was performed using Intrinsic. Analysis was performed using parameters as set forth below.
The hygroscopicity for Form C and Form F was examined. See, e.g., Table E.

physchem = conditions: 37 °C, thermodynamic from solid
Method: (§1) 2.01 mg of the free base Form C (equal to 2 mg free base after correction for water content) was weighed into 2 mL vial. 2.09 mg of the free base Form F (equal to 2 mg free base after correction for water content) was weighed into a 2 mL vial. I mL of aqueous media was added, respectively. These suspensions were stirred at 37° C. at a rate of 400 rpm. These suspensions were taken out after 2 h and 24 h, and then centrifuged at 14,000 rpm for 5 minutes. The supernatants were analyzed by HPLC. The pH of the supernatants were tested.

[2] = Variable relative humidity XRPD experiments for Form F; type: physicochemical
From the text: Protocol 9: Variable relative humidity experiment. Form F was investigated by variable humidity XRPD experiments. […] Form L reverted to Form F in >10% RH. […] See Example 8 for more details.
Form F was investigated by variable humidity XRPD experiments.

[3] = Solubility study in aqueous media at 37° C. (HPLC of supernatants, pH)
Method: as §1

[4] = Bulk stability under accelerated storage conditions (XRPD and HPLC); conditions: Solid state
From the text: Solids obtained after bulk stability study were characterized by XRPD and HPLC.

[5] = pH 6.8 (50 mM) phosphate buffer, 37° C.
[6] = 25° C./92.5% RH in an open vial, 2 weeks
[7] = 25° C./92.5% RH in an open vial, 4 weeks
[8] = 40° C./75% RH in an open vial, 2 weeks
[9] = 40° C./75% RH in an open vial, 4 week
[10] = 60° C., tight container, 2 weeks
[11] = 60° C., tight container, 4 weeks

- DVS water uptake from 40% RH to 70% RH ([1]; 25° C., dm/dt = 0.002%): 1.1% water uptake from 40% RH to 70% RH
- DVS water uptake from 40% RH to 95% RH ([1]; 25° C., dm/dt = 0.002%): 10.2% water uptake from 40% RH to 95% RH
- Desorp. (%) ([1]; Relative Humidity 0%, first Desorp.): 0.0%
- Sorp. (%) ([1]; Relative Humidity 0%, second Sorp.): 0.0%
- Desorp. (%) ([1]; Relative Humidity 10%, first Desorp.): 1.4%
- Sorp. (%) ([1]; Relative Humidity 10%, second Sorp.): 1.3%
- Desorp. (%) ([1]; Relative Humidity 20%, first Desorp.): 1.9%
- Sorp. (%) ([1]; Relative Humidity 20%, second Sorp.): 1.7%
- Desorp. (%) ([1]; Relative Humidity 30%, first Desorp.): 3.6%
- Sorp. (%) ([1]; Relative Humidity 30%, second Sorp.): 2.1%
- Desorp. (%) ([1]; Relative Humidity 40%, first Desorp.): 6.3%
- Sorp. (%) ([1]; Relative Humidity 40%, first Sorp.): 2.5%
- Desorp. (%) ([1]; Relative Humidity 40%, second Desorp.): 6.4%
- Sorp. (%) ([1]; Relative Humidity 40%, second Sorp.): 2.8%
- Desorp. (%) ([1]; Relative Humidity 50%, first Desorp.): 8.0%
- Sorp. (%) ([1]; Relative Humidity 50%, first Sorp.): 2.8%
- Desorp. (%) ([1]; Relative Humidity 50%, second Desorp.): 7.9%
- Sorp. (%) ([1]; Relative Humidity 50%, second Sorp.): 3.2%
- Desorp. (%) ([1]; Relative Humidity 60%, first Desorp.): 9.4%
- Sorp. (%) ([1]; Relative Humidity 60%, first Sorp.): 3.2%
- Desorp. (%) ([1]; Relative Humidity 60%, second Desorp.): 9.3%
- Sorp. (%) ([1]; Relative Humidity 60%, second Sorp.): 3.7%
- Desorp. (%) ([1]; Relative Humidity 70%, first Desorp.): 10.2%
- Sorp. (%) ([1]; Relative Humidity 70%, first Sorp.): 3.6%
- Desorp. (%) ([1]; Relative Humidity 70%, second Desorp.): 10.0%
- Sorp. (%) ([1]; Relative Humidity 70%, second Sorp.): 4.2%
- Desorp. (%) ([1]; Relative Humidity 80%, first Desorp.): 11.0%
- Sorp. (%) ([1]; Relative Humidity 80%, first Sorp.): 10.4%
- Desorp. (%) ([1]; Relative Humidity 80%, second Desorp.): 10.8%
- Sorp. (%) ([1]; Relative Humidity 80%, second Sorp.): 10.4%
- Desorp. (%) ([1]; Relative Humidity 90%, first Desorp.): 11.8%
- Sorp. (%) ([1]; Relative Humidity 90%, first Sorp.): 11.6%
- Desorp. (%) ([1]; Relative Humidity 90%, second Desorp.): 11.6%
- Sorp. (%) ([1]; Relative Humidity 90%, second Sorp.): 11.4%
- Desorp. (%) ([1]; Relative Humidity 95%, first Desorp.): 12.9%
- Sorp. (%) ([1]; Relative Humidity 95%, first Sorp.): 12.7%
- Desorp. (%) ([1]; Relative Humidity 95%, second Desorp.): 12.2%
- Sorp. (%) ([1]; Relative Humidity 95%, second Sorp.): 12.2%
- XRPD after DVS test ([1]; DVS at 25° C.): No form change
- solubility (physchem; pH 1, simulated gastric fluid): > 2000 µg/mL
- solubility at 2 h (physchem; pH 1, simulated gastric fluid): > 2000 µg/mL
- solubility at 24 h (physchem; pH 1, simulated gastric fluid): > 2000 µg/mL
- solubility (physchem; pH 2, simulated gastric fluid): > 2000 µg/mL
- solubility at 2 h (physchem; pH 2, simulated gastric fluid): > 2000 µg/mL
- solubility at 24 h (physchem; pH 2, simulated gastric fluid): > 2000 µg/mL
- solubility (physchem; pH 4.5, aqueous buffer): > 2000 µg/mL
- solubility at 2 h (physchem; pH 4.5, aqueous buffer): > 2000 µg/mL
- solubility at 24 h (physchem; pH 4.5, aqueous buffer): > 2000 µg/mL
- solubility (physchem; pH 6.8, aqueous buffer): ~20 µg/mL (≈ 35.6 µM)
- solubility at 2 h (physchem; pH 6.8, aqueous buffer): 20.7 µg/mL (≈ 36.9 µM)
- solubility at 24 h (physchem; pH 6.8, aqueous buffer): 19.8 µg/mL (≈ 35.3 µM)
- solubility (physchem; water): < 10 µg/mL
- solubility at 2 h (physchem; water): 7 µg/mL (≈ 12.5 µM)
- solubility at 24 h (physchem; water): 7.5 µg/mL (≈ 13.4 µM)
- 2 h Solubility (pH 5): Degradation
- 24 h Solubility (pH 5): Degradation
- 2 h Solubility (pH 6.5): Degradation
- 24 h Solubility (pH 6.5): Degradation
- XRPD (form observed) ([2]; 0% RH (12 h), step 8 of humidity sequence): Form L (Only stable in low humidity)
- XRPD (form observed) ([2]; 0% RH (24 h), step 9 of humidity sequence): Form L (Only stable in low humidity)
- XRPD (form observed) ([2]; 10% RH, step 7 of humidity sequence): Form F
- XRPD (form observed) ([2]; 10% RH, step 10 of humidity sequence): Form F
- XRPD (form observed) ([2]; 40% RH, step 1 of humidity sequence): Form F
- XRPD (form observed) ([2]; 40% RH, step 6 of humidity sequence): Form F
- XRPD (form observed) ([2]; 40% RH, step 11 of humidity sequence): Form F
- XRPD (form observed) ([2]; 70% RH, step 2 of humidity sequence): Form F
- XRPD (form observed) ([2]; 70% RH, step 5 of humidity sequence): Form F
- XRPD (form observed) ([2]; 90% RH (3 h), step 3 of humidity sequence): Form F
- XRPD (form observed) ([2]; 90% RH (6 h), step 4 of humidity sequence): Form F
- 24 h (pH) of supernatant ([3]; SGF, pH 2.0, 37° C.): pH 3.5
- XRPD of residual solid ([3]; Water, 37° C.): Form F
- 24 h (pH) of supernatant ([3]; Water, 37° C.): pH 7.0
- 24 h (pH) of supernatant ([3]; pH 1.0 (0.1N HCl), 37° C.): pH 0.9
- 24 h (pH) of supernatant ([3]; pH 4.5 (50 mM) acetate buffer, 37° C.): pH 4.6
- XRPD of residual solid [3, 5]: Form F
- 24 h (pH) of supernatant [3, 5]: pH 6.7
- Bulk (XRPD) [4, 6]: No form change
- Purity, Bulk (HPLC) [4, 6]: 95.5%
- Bulk (XRPD) [4, 7]: No form change
- Purity, Bulk (HPLC) [4, 7]: 94.1%
- Bulk (XRPD) [4, 8]: No form change
- Purity, Bulk (HPLC) [4, 8]: 94.3%
- Bulk (XRPD) [4, 9]: No form change
- Purity, Bulk (HPLC) [4, 9]: 91.6%
- Bulk (XRPD) [4, 10]: No form change
- Purity, Bulk (HPLC) [4, 10]: 90.1%
- Bulk (XRPD) [4, 11]: No form change
- Purity, Bulk (HPLC) [4, 11]: 82.6%
SMILES: CN1C[C@H]2C[C@@]2(C#Cc2cc3ncnc(Nc4cccc(Cl)c4F)c3cc2NC(=O)/C=C/CN2CCOCC2)C1 [Form F]
- form conversion in variable humidity XRPD ([2]; 0% RH): converted to a new crystalline form, assigned as Form L
